A value given as a limit tells only on which side of the number the result lay.

We go through twelve compounds from ChEMBL document CHEMBL3124886, “Potent Hepatitis C Virus NS5A Inhibitors Containing a Benzidine Core” (ACS Med Chem Lett, 2014).

In data set [1] the test system is Hepatitis C virus. The experiment in a line: Antiviral activity against Hepatitis C virus type 2a expressing JFH1 assessed as inhibition of infection in human Huh7.5.1 cells after 3 days by luciferase reporter gene assay. Format: functional, organism-based, Hepacivirus hominis. The conditions noted are these: genotype 2a, Huh-7, 72 h. (Reporter assays use an easily measured gene product as a stand-in for the process of interest.)

The nature of data set [2]: Selectivity index, ratio of cytotoxicity for human Huh7.5.1 cells to EC50 for Hepatitis C virus type 2a. Type of data set: toxicity, cell-based, Huh-7. The conditions noted are these: read-out: Selectivity Index.
Data set [3] in a line: Metabolic stability in rat plasma assessed as compound remaining at 2 uM after 1 hr. Type of data set: ADME, cell-free. The note with it: read-out: Stability.
A short description of data set [4]: Metabolic stability in rat plasma assessed as compound remaining at 2 uM after 0.5 hrs. Format: ADME, cell-free. The note with it: read-out: Stability.
A short description of data set [5]: Metabolic stability in rat plasma assessed as compound remaining at 2 uM after 4 hrs. Format: ADME, cell-free. The note with it: read-out: Stability.
Data set [6] in a line: Selectivity index, ratio of cytotoxicity for human Huh7.5.1 cells to EC50 for Hepatitis C virus genotype 1b. Format: toxicity, cell-based, Huh-7. The note with it: read-out: Selectivity Index.
Another data set addresses T1, CYP1A2 (Homo sapiens, UniProt P05177).
T1 sequence (P05177 whole entry): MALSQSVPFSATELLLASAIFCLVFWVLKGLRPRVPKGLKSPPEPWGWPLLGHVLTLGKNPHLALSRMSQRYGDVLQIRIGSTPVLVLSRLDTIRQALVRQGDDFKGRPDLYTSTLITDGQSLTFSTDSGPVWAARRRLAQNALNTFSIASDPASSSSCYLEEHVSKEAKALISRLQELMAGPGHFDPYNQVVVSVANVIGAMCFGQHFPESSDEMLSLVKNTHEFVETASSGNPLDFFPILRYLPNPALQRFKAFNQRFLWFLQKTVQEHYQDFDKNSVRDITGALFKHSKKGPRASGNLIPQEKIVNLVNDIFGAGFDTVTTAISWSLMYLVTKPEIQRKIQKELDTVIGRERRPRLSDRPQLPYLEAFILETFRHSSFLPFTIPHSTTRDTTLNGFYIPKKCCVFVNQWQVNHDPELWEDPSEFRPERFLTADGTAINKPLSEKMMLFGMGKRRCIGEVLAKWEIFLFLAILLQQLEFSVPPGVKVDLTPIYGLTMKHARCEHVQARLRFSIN
The experiment in a line: Inhibition of CYP1A2 (unknown origin) at 10 uM relative to control. Type of data set: ADME.

Data set [7] can be described thus: Cytotoxicity against human Huh7.5.1 cells. Format: cell-based. The note with it: huh-7.
Data set [8] has as its target Voltage-gated inwardly rectifying potassium channel KCNH2 (Homo sapiens, UniProt Q12809). The experiment in a line: Binding affinity to human ERG by fluorescence polarization assay.
The target of the next data set is CYP2C9 (Homo sapiens, UniProt P11712). The experiment in a line: Inhibition of CYP2C9 (unknown origin) at 10 uM relative to control. Type of data set: ADME.
CYP2C9, sequence (P11712 whole entry): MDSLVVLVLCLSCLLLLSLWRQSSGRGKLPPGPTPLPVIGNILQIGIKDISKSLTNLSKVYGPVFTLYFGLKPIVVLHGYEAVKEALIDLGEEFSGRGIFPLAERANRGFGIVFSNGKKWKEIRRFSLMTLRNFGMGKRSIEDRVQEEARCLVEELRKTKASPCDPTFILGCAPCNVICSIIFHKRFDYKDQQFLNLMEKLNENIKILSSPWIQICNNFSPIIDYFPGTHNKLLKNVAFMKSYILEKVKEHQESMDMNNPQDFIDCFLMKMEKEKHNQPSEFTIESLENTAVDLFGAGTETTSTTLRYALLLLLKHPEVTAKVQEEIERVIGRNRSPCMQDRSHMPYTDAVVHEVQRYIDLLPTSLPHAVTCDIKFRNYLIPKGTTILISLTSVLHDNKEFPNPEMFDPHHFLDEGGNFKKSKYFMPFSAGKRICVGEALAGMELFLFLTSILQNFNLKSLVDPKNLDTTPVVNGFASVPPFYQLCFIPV
The target of a further data set is CYP2D6 (Homo sapiens, UniProt P10635). The experiment in a line: Inhibition of CYP2D6 (unknown origin) at 10 uM relative to control. Format: ADME.
CYP2D6, sequence (P10635 whole entry): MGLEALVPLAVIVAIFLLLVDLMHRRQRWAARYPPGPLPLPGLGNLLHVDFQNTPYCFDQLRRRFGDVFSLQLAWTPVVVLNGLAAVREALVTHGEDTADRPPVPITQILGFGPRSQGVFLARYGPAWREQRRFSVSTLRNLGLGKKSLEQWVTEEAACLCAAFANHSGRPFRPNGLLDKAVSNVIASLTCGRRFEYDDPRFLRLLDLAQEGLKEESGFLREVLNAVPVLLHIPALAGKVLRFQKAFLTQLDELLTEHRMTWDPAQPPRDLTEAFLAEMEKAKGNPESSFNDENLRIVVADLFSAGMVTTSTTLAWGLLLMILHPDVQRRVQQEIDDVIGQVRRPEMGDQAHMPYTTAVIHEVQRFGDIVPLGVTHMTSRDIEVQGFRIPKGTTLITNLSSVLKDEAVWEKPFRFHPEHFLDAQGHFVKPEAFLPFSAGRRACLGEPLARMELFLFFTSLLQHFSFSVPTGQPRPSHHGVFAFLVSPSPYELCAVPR
The target of the next data set is CYP3A4 (Homo sapiens, UniProt P08684). The experiment in a line: Inhibition of CYP3A4 (unknown origin) at 10 uM relative to control. Type of data set: ADME.
CYP3A4, sequence (P08684 whole entry): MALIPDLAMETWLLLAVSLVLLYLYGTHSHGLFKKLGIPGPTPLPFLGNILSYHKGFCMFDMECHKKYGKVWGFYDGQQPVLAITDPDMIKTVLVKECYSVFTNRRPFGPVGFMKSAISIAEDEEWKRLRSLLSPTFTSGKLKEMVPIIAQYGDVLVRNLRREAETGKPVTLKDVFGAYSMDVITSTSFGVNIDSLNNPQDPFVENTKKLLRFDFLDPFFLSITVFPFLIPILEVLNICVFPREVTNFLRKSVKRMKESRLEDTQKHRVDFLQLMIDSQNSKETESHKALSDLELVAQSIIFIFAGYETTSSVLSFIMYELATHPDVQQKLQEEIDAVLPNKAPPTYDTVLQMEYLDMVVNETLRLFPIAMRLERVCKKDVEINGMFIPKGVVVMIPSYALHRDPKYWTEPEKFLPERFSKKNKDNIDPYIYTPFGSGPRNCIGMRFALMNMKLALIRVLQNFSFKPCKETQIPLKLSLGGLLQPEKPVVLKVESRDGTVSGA
Data set [9] has as its system Hepatitis C virus. The experiment in a line: Antiviral activity against Hepatitis C virus genotype 1b expressed in human Huh7.5.1 cells coexpressing NKR2AN after 3 days by luciferase reporter gene assay. The conditions noted are these: Huh-7, 72 h. Type of data set: functional, organism-based, Hepacivirus hominis.

Voltage-gated inwardly rectifying potassium channel KCNH2, sequence (Q12809 whole entry): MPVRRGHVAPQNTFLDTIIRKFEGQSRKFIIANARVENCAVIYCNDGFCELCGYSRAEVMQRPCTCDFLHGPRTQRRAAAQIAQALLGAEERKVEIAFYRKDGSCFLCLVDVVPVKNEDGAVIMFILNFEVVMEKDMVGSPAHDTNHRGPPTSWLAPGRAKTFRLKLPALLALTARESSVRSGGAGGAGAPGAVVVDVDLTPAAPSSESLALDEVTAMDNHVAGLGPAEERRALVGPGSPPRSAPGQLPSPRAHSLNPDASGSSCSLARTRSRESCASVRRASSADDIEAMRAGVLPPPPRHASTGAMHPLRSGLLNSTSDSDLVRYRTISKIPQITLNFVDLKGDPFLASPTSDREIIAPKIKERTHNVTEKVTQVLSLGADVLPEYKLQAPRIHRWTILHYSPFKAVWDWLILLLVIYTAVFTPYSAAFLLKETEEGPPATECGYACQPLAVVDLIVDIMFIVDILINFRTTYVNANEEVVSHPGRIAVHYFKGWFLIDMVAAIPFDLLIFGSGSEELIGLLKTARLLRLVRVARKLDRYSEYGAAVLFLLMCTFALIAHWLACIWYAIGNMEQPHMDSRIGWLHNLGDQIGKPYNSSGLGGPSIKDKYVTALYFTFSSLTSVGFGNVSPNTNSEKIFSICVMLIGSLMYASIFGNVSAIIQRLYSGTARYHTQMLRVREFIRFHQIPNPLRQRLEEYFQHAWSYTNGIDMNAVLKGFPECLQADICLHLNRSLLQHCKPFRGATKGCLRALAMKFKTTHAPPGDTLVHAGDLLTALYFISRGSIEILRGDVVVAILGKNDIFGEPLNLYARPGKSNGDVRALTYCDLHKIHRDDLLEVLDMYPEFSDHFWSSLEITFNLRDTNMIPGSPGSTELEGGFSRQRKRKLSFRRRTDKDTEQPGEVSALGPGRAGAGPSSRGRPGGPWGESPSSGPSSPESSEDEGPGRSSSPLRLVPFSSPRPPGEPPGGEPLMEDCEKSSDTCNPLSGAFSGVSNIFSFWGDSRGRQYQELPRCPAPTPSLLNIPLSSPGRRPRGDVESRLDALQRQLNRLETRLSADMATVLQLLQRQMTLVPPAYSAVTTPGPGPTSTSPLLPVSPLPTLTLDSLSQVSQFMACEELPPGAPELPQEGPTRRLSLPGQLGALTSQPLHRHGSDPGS

Consider `COC(=O)N[C@@H](C(=O)N1CCC[C@H]1C(=O)Nc1ccc(-c2ccc(NC(=O)[C@@H]3CCCN3C(=O)[C@H](NC(=O)OC)C(C)C)cc2)cc1)C(C)C`, for which the EC50 (commonly the midpoint of the concentration-response curve) with Hepatitis C virus [1] worked out at 15 nM.

In the case of `COC(=O)N[C@H](C(=O)N1CCC[C@H]1C(=O)Nc1ccc(-c2ccc(NC(=O)[C@@H]3CCCN3C(=O)[C@@H](NC(=O)OC)C(C)C)cc2)cc1)C(C)C`, in the data set on Hepatitis C virus [1], the 50% effective concentration (EC50) turned out to be 120 nM.

Take `COC(=O)N[C@@H](C(=O)N1CCC[C@H]1C(=O)Nc1ccc(-c2ccc(NC(=O)[C@@H]3CCCN3C(=O)[C@H](NC(=O)OC)c3ccccc3)cc2)cc1)c1ccccc1`: the selectivity ratio is more than 96000 in [2] and more than 893000 in data set [6]. Further, the remaining at 1 h, 2 µM in data set [3] is more than 99%. The remaining at 0.5 h, 2 µM in data set [4] was more than 99%. Also, in [5], the remaining at 4 h, 2 µM is more than 99%. Further, the figures for the EC50 (with Hepatitis C virus [1]; in data set [8]; in the data set on Hepatitis C virus [9]) were 0.26 nM, 9800 nM and 0.028 nM, respectively. Further, the inhibition (in general, the percentage by which the read-out fell short of the control) at 10 µM against CYP1A2 came to 18.1%; on CYP2C9, 0%; against CYP2D6, 0%; on CYP3A4 it was 23.9%. Further, the Activity in [7] was more than 25 µM.

As for `CN(C)[C@@H](C(=O)N1CCC[C@H]1C(=O)Nc1ccc(-c2ccc(NC(=O)[C@@H]3CCCN3C(=O)[C@@H](c3ccccc3)N(C)C)cc2)cc1)c1ccccc1`, the selectivity ratio in [2] is more than 11000; in [6] it was more than 58000. The EC50 came to 2.3 nM in the data set on Hepatitis C virus [1] and 0.43 nM with Hepatitis C virus [9]. The compound further displayed an Activity in [7] of more than 25 µM.

As for `CCN(CC)[C@@H](C(=O)N1CCC[C@H]1C(=O)Nc1ccc(-c2ccc(NC(=O)[C@@H]3CCCN3C(=O)[C@@H](c3ccccc3)N(CC)CC)cc2)cc1)c1ccccc1`, the values for the selectivity ratio in data set [2] and in data set [6] were more than 11000 and more than 93000, respectively. In addition, the EC50 in the data set on Hepatitis C virus [1] is 2.2 nM; in the data set with Hepatitis C virus [9], 0.27 nM. The same compound returned an Activity in [7] of more than 25 µM.

As for `COC(=O)N[C@@H](C)C(=O)N1CCC[C@H]1C(=O)Nc1ccc(-c2ccc(NC(=O)[C@@H]3CCCN3C(=O)[C@H](C)NC(=O)OC)cc2)cc1`, the EC50 in the data set with Hepatitis C virus [1] is more than 1000 nM.

For the compound `COC(=O)N[C@H](C(=O)N1CCC[C@H]1C(=O)Nc1ccc(-c2ccc(NC(=O)[C@@H]3CCCN3C(=O)[C@@H](NC(=O)OC)C(C)(C)C)cc2)cc1)C(C)(C)C`, in the data set on Hepatitis C virus [1], the EC50 came to 24 nM.

With `O=C(Nc1ccc(-c2ccc(NC(=O)[C@@H]3CCCN3C(=O)[C@H]3CCCO3)cc2)cc1)[C@@H]1CCCN1C(=O)[C@H]1CCCO1`, the EC50 with Hepatitis C virus [1] came out at 400 nM.

In the case of `CC(=O)N1CCN(c2ccc(OCC3COC(Cn4ccnc4)(c4ccc(Cl)cc4Cl)O3)cc2)CC1` (racemic) [KETOCONAZOLE], 10 µM produced 95.3% inhibition on CYP3A4.

As to `O=c1cc(-c2ccccc2)oc2c1ccc1ccccc12` [ALPHA-NAPHTHOFLAVONE], at 10 µM the inhibition on CYP1A2 was 98.6%.

Compound `C=C[C@H]1C[N@@]2CC[C@H]1C[C@@H]2[C@@H](O)c1ccnc2ccc(OC)cc12` [QUINIDINE] had an inhibition at 10 µM on CYP2D6 of 95.1%.

On CYP2C9, `Nc1ccc(S(=O)(=O)Nc2ccnn2-c2ccccc2)cc1` [SULFAPHENAZOLE] had an inhibition at 10 µM of 75.8%.
